# Measured values from US20050261319A1, “Novel 2-amino-4-quinazolinones and 2-amino-4-oxoquinazolones as LXR nuclear receptor binding compounds with partial agonistic properties” (priority 2002, published 2005).
# Biological target: T1, human LXRalpha LBD (Homo sapiens, UniProt Q13133, A196R)
# T1 construct: from amino acids 155 of hLXRalpha to 447; made in house; host or cells: SF9 insect cells (baculovirus) for LXRalpha LBD; E. coli BL21 for Tif2 fragment
# T1 sequence (Q13133 155-447 A196R): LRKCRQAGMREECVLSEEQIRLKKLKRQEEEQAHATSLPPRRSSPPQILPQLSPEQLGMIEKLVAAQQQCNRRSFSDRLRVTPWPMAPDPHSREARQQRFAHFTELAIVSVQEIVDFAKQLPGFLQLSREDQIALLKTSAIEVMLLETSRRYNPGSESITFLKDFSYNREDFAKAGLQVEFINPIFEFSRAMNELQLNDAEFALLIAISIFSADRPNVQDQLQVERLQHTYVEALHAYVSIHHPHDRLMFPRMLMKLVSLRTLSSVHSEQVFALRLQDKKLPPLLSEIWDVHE
# T1 sequence (Q15596 548-878 partner limits assumed): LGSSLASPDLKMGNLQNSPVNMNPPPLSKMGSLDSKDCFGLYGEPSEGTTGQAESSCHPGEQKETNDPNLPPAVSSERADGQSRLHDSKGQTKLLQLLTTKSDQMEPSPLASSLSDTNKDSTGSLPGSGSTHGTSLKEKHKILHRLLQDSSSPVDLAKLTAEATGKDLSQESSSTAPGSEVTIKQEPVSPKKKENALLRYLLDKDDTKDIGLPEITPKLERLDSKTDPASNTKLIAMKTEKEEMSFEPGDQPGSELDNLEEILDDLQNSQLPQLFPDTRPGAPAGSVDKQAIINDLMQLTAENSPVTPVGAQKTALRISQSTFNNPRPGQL
# Assay: In vitro screening for LXR binding to coactivator Tif2 (LANCE TR-FRET)
# Assay type: biochemical
# Excerpt: For screening purposes a GST and 6× His fusion of the LBD (from amino acids 155 of hLXRalpha to 447) of human LXRalpha was constructed by first cloning a Gateway cassette (Invitrogen) in frame into the Sma I site of the pAGGHLT Polylinker (Pharmingen). Then a PCR fragment specifically amplified from human liver cDNA was cloned into the resulting pACGHLT-GW following the manufacturers instructions for Gateway cloning (Invitrogen) to yield pACGHLT-GW-hLXRalphaLBD.
# 100% sequence integrity of all recombinant products was verified by sequencing. Recombinant Baculovirus was constructed from pACGHLT-GW-hLXRalphaLBD using the Pharmingen Baculovirus Expression vector system according to instructions of the manufacturer. Monolayer cultures of SF9 cells were infected by the virus as recommended by Pharmingen or 200 ml cultures of 1×10^6 cells/ml grown in 2 liter Erlenmeyer flasks on an orbital shaker at 30 rpm were infected by 10 ml of same virus stock. In both cases cells were harvested 3 days after infection. All cell growth was performed in Gibco SF900 II with Glutamine (Invitrogen) medium without serum supplementation at 28° C. Since SF9 cells contain significant amounts of endogenous 30 GST, purification was performed via His and not via GST affinity chromatography.
# To this end instructions of Pharmingen for purification of recombinant His tagged proteins from SF9 cells were followed with the following modifications: All detergents were omitted from the buffers and cells were lysed on ice by 5 subsequent sonication pulses using a sonicator needle at maximum power.
# All eluates were dialyzed against 20 mM Tris/HCl pH 6.8, 300 mM KCl; 5 mM MgCl2;1 mM DTT; 0.2 mM PMSF; 10% Glycerol. A typical dialyzed eluate fraction contained the fusion protein at a purity of more than 80%. Total protein concentration was 0.1-0.3 mg/ml.
# For E. coli expression of a NR coactivator, pDest17-hTif2BD expressing an NR interaction domain from amino acids 548-878 of human Tif2 (Acc. No: XM011633 Ref Seq) tagged by 6 N-terminal His residues was constructed. Therefore, a PCR fragment specifically amplified from human liver cDNA was subcloned into pDest 17 (Invitrogen) following the manufacturers instructions for Gateway cloning (Invitrogen). Primers used for Amplification were: […]
# For E. coli expression plasmid DNA was transformed into chemically competent E. coli BL21 (Invitrogen, USA) and cells were grown to an OD600 of 0.4-0.7 before expression was induced by addition of 0.5 mM IPTG according instructions of the manufacturer (Invitrogen). After induction for 8 hours at 30° C. cells were harvested by centrifugation for 10 minutes at 5000×g. Fusion proteins were affinity purified using Ni—NTA Agarose (QIAGEN) according to the instructions of the manufacturer.
# Recombinant Tif2 construct was dialyzed against 20 mM Tris/HCL pH 7.9; 60 mM KCl; 5 mM MgCl2; 1 mM DTT, 0.2 mM PMSF; 10% glycerol. A typical dialyzed eluate fraction contained the fusion protein at a purity of more than 80%. Total protein concentration was 0.1-0.3 mg/ml.
# The TIF2 fragment was subsequently biotinylated by addition of 5-40 ul/ml Tif2 fraction of a Biotinamidocaproate N-Hydroxysuccinimide-ester (Sigma) solution (20 mg/ml in DMSO). Overhead rotating samples were incubated for 2 hours at room temperature. Unincorporated label was then separated using G25 Gel filtration chromatography (Pharmacia Biotech, Sweden). Protein containing fractions from the column were pooled and tested for activity in the assay as described below.
# For screening of compound libraries as provided for by the methods shown below in the examples for substances which influence the LXR/Tif 2 interaction, the PerkinElmer LANCE technology is applied. This method relies on the binding dependent energy transfer from a donor to an acceptor fluorophore attached to the binding partners of interest. […]
Compound,active as agonist / partial agonist of the LXR human nuclear receptor,"EC50 (FRET assay, read-out: EC50 at LXR (half-maximal effective concentration)) [nM]"
CC(C)n1c(N2C3CC(C)(C)CC2(C)C3)nc2ccc(I)cc2c1=O (stereo not shown) [formula (10)],active as partial agonist,
C=CCn1c(N2C3CC(C)(C)CC2(C)C3)nc2ccc(I)cc2c1=O (stereo not shown) [formula (9)],,2000
C=CCn1c(N2[C@@H]3CC(C)(C)C[C@@]2(C)C3)nc2cccc(F)c2c1=O [formula (12)],active as partial agonist,
CCCn1c(N2[C@@H]3CC(C)(C)C[C@@]2(C)C3)nc2cccc(F)c2c1=O [formula (11)],active as partial agonist,
